# In ChEMBL document CHEMBL3880421, “Indazole compounds and pharmaceutical compositions for inhibiting protein kinases, and methods for their use” (2003):
# Key:
# [1] = Terminal half life in B6 mouse at 25 mg/kg, ip by UV-HPLC analysis; type: ADME, organism-based; details: in vivo, read-out: beta t1/2 (converted)
# [2] = Terminal half life in B6 mouse at 25 mg/kg, po by UV-HPLC analysis; type: ADME, organism-based; details: in vivo; for half-life: B6, mouse, read-out: beta t1/2 (converted)
# [3] = Terminal half life in B6 mouse at 50 mg/kg, po by UV-HPLC analysis; type: ADME, organism-based; details: B6, mouse, in vivo, read-out: beta t1/2 (converted)
# [4] = (§1) Cmax in B6 mouse at 25 mg/kg, po by UV-HPLC analysis; type: ADME, organism-based; parameters: dose 25 mg/kg, route oral; details: B6, mouse, in vivo
# [5] = Cmin in B6 mouse at 40 mg/kg, po measured after 7 hrs by UV-HPLC analysis; type: ADME, organism-based; details: in vivo, read-out: Cmin
# [6] = Cmin in B6 mouse at 8 mg/kg, po measured after 7 hrs by UV-HPLC analysis; type: ADME, organism-based; details: in vivo, read-out: Cmin
# [7] = AUClast in B6 mouse at 25 mg/kg, po by UV-HPLC analysis; type: ADME, organism-based; parameters: dose 25 mg/kg, time 0 - last, route oral; details: in vivo
# [8] = Cmin in B6 mouse at 200 mg/kg, po measured after 7 hrs by UV-HPLC analysis; type: ADME, organism-based; details: in vivo, read-out: Cmin
# [9] = Terminal half life in B6 mouse at 8 mg/kg, po by UV-HPLC analysis; type: ADME, organism-based; details: in vivo, read-out: beta t1/2 (converted)
# [10] = Terminal half life in B6 mouse at 10 mg/kg, po by UV-HPLC analysis; type: ADME, organism-based; details: in vivo, read-out: beta t1/2 (converted)
# [11] = Terminal half life in B6 mouse at 40 mg/kg, po by UV-HPLC analysis; type: ADME, organism-based; details: in vivo, read-out: beta t1/2 (converted)
# [12] = AUClast in B6 mouse at 10 mg/kg, po by UV-HPLC analysis; type: ADME, organism-based; parameters: dose 10 mg/kg, route oral, time 0 - last; details: in vivo
# [13] = Cmax in B6 mouse at 10 mg/kg, po by UV-HPLC analysis; type: ADME, organism-based; parameters: dose 10 mg/kg, route oral; details: in vivo
# Rattus norvegicus [14] = assay: Antivascular activity in rat model of retinopathy assessed as vessel regression in retina at 5 mg/ml, administered intravitreally on postnatal day 8 measured after 6 days by ADPase-staining based histochemical analysis; type: functional
# [15] = tested on: Vascular endothelial growth factor receptor 2 (Homo sapiens), P35968 [E990V]; details: at 50 nM
# Chain of Vascular endothelial growth factor receptor 2 (Homo sapiens), P35968 [E990V] (P35968 whole entry E990V): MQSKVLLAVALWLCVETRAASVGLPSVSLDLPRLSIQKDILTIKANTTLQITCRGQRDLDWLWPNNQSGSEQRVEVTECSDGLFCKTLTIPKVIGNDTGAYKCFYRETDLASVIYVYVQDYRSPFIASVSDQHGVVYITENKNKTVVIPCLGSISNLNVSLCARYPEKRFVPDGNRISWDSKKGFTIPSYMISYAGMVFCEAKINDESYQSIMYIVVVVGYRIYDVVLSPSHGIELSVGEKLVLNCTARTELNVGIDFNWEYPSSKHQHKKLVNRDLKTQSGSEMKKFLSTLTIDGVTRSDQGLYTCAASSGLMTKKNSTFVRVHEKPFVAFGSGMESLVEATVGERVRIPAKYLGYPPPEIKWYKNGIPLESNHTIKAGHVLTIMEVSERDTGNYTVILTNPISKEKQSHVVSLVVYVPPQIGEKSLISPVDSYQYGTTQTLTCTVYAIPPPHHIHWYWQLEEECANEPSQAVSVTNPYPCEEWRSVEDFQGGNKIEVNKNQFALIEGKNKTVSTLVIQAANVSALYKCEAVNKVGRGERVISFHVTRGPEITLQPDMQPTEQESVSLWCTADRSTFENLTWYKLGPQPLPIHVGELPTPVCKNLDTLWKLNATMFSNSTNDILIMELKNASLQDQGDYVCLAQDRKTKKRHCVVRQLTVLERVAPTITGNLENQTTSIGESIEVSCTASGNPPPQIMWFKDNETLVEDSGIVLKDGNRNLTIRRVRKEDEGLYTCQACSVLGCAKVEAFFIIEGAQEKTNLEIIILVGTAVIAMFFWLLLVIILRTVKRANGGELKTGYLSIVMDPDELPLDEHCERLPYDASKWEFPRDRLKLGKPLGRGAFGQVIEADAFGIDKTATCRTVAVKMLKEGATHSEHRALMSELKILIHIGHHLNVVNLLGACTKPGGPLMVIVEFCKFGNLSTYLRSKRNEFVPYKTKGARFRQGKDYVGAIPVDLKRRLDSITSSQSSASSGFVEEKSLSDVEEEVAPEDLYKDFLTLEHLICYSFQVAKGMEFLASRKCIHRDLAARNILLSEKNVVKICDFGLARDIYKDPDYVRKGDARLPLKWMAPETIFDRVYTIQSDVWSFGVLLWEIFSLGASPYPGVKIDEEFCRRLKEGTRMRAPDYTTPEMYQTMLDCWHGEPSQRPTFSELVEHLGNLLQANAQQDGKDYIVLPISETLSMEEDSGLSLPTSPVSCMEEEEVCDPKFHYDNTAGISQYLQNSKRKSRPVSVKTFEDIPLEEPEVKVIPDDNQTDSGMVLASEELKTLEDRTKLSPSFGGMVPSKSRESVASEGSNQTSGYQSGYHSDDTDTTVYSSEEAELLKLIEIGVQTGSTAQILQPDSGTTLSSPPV
# Mus musculus = assay: as §1; type: ADME, organism-based; parameters: dose 25 mg/kg, route oral; details: mouse, in vivo, BLD = below limit of detection
# [16] = target: T1, Serine/threonine-protein kinase Chk1 (Homo sapiens) (UniProt O14757); assay: Inhibition of full length human C-terminal 6His-tagged CHK1 expressed in baculovirus/insect expression system assessed as reduction in NADH oxidation at 20 uM using Syntide2 as substrate by pyruvate kinase/lactate dehydrogenase coupled assay
# T1 sequence (whole entry): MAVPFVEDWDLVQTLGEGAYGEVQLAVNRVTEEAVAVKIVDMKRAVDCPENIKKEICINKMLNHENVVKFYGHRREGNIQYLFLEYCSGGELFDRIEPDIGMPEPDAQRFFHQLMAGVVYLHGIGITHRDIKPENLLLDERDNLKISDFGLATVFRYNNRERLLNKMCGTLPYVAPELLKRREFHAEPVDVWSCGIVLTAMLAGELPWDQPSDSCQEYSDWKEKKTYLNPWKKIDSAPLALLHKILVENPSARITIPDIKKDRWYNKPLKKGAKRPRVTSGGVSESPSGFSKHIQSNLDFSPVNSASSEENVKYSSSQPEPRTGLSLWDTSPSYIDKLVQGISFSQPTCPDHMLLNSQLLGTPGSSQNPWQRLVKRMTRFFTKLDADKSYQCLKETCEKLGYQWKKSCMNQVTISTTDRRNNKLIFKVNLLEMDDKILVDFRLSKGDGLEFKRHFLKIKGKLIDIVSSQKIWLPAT
# [17] = Cmax in B6 mouse at 50 mg/kg, po by UV-HPLC analysis; type: ADME, organism-based; parameters: dose 50 mg/kg, route oral; details: in vivo
# Rattus norvegicus [18] = assay: Antivascular activity in rat model of retinopathy assessed as vessel regression in retina at 5 mg/ml, administered intravitreally measured after 6 days by ADPase-staining based histochemical analysis; type: functional
# [19] = target: T1, Serine/threonine-protein kinase Chk1 (Homo sapiens); assay: Inhibition of full length human C-terminal 6His-tagged CHK1 expressed in baculovirus/insect expression system assessed as reduction in NADH oxidation at 50 uM using Syntide2 as substrate by pyruvate kinase/lactate dehydrogenase coupled assay
# [20] = Metabolic stability in human liver microsomes assessed as compound remaining at 5 uM measured after 2 hrs in presence of NADPH-regenerating system by LC-UV/MS analysis; type: ADME; details: read-out: Stability
# [21] = AUClast in B6 mouse at 50 mg/kg, po by UV-HPLC analysis; type: ADME, organism-based; parameters: dose 50 mg/kg, route oral, time 0 - last; details: in vivo
# [22] = target: Cyclin-dependent kinase 1 (Homo sapiens) (UniProt P06493); assay: Inhibition of CDK1 (unknown origin) at 1 uM
# Chain of Cyclin-dependent kinase 1 (Homo sapiens) (P06493 whole entry, looked up): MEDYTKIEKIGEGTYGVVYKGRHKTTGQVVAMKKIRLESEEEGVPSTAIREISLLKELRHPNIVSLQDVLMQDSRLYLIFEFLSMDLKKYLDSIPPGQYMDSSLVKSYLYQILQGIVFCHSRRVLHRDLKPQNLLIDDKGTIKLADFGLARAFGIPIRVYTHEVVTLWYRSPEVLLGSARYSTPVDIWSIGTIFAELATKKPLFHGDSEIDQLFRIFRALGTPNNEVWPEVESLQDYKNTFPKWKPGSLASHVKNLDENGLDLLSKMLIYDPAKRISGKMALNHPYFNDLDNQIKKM
# [23] = tested on: Focal adhesion kinase 1 (Homo sapiens), Q05397 [P410T]; assay: Inhibition of human FAK P410T mutant expressed in baculovirus expression system at 10 uM using poly Glu-Tyr (4:1) as substrate by fluorescence polarization method
# Chain of Focal adhesion kinase 1 (Homo sapiens), Q05397 [P410T] (Q05397 whole entry P410T): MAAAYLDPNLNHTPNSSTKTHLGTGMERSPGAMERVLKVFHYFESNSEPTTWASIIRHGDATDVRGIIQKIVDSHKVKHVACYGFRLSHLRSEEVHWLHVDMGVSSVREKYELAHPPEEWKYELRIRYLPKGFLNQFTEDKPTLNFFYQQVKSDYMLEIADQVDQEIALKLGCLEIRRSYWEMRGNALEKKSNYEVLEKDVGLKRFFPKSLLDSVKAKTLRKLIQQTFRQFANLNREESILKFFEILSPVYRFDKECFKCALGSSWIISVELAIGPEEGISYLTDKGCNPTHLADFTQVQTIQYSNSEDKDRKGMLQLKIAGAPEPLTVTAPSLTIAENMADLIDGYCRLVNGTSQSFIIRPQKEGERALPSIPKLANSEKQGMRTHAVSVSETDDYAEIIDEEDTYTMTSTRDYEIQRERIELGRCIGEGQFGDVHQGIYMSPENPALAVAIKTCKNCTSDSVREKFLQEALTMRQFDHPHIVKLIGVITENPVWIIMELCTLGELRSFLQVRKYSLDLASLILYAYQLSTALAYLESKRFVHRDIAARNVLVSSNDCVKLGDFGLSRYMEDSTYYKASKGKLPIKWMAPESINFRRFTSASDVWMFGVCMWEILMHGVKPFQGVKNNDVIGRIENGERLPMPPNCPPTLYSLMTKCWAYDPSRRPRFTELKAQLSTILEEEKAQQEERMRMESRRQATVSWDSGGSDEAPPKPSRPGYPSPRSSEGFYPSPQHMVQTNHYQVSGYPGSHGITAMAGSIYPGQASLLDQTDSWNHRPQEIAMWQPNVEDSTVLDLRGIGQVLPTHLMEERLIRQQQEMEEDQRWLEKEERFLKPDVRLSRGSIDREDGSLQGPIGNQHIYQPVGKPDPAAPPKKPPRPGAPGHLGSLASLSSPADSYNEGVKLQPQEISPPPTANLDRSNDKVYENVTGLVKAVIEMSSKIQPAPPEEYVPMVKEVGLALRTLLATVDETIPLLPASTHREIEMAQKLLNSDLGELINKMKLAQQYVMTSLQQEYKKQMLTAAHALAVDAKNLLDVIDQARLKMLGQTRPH
half-life [1],half-life [3],SMILES,also measured
1.5 h,,C=C(C)CNC(=O)c1ccccc1Sc1ccc2c(/C=C/c3ccccn3)n[nH]c2c1,half-life [2]: 14.6 h
3.8 h,3.6 h,O=C(NCc1ccccc1F)c1ccccc1Sc1ccc2c(/C=C/c3ccccn3)n[nH]c2c1,
2.8 h,1.5 h,O=C(c1cccc(NC(=O)c2cccc3[nH]ccc23)c1)c1ccc2c(/C=C/c3ccccn3)n[nH]c2c1,
,,Cc1cc(C(=O)Nc2cc(Nc3ccc4c(/C=C/c5ccccn5)n[nH]c4c3)ccc2F)n(C)n1.Cl,Cmax [4]: 50000 ng/mL; concentration at 7 h [5]: 4140 ng/mL; concentration at 7 h [6]: 1900 ng/mL; AUC(0-t) [7]: 327 µg·h/mL; concentration at 7 h [8]: 12700 ng/mL
3 h,3 h,Cc1ccc2cc(NC(=O)c3ccccc3Sc3ccc4c(/C=C/c5ccccn5)n[nH]c4c3)ccc2n1,
,,CCn1nc(C)cc1C(=O)Nc1cccc(C(=O)c2ccc3c(/C=C/c4ccccn4)n[nH]c3c2)c1.Cl,concentration at 7 h [5]: 1880 ng/mL; half-life [9]: 1.5 h; concentration at 7 h [6]: 122 ng/mL; half-life [10]: 3.1 h; half-life [2]: 1.6 h; half-life [11]: 2.4 h; AUC(0-t) [12]: 0.061 µg·h/mL; Cmax [13]: 12 ng/mL
1.7 h,1 h,Cc1cc(C(=O)Nc2cccc(Oc3ccc4c(/C=C/c5ccccn5)n[nH]c4c3)c2)nn1C,
,,C#CCNC(=O)c1cccc(C(=O)c2ccc3c(/C=C/c4ccccn4)n[nH]c3c2)c1,inhibition [15]: 5%
1.2 h,0.7 h,C[C@@H]1C[C@H]1C(=O)Nc1cccc(C(=O)c2ccc3c(/C=C/c4ccccn4)n[nH]c3c2)c1 (racemic),
,,O=C(NCc1cccc(F)c1)c1ccccc1Sc1ccc2c(/C=C/c3ccccn3)n[nH]c2c1,"Cmax (Mus musculus): Bld; beta t1/2 ([2]; mouse, BLD = below limit of detection): Bld"
19.9 h,3.4 h,O=C(Nc1cc(Nc2ccc3c(/C=C/c4ccccc4)n[nH]c3c2)ccc1F)c1ccccc1,
5.3 h,39.3 h,CCn1nc(C)cc1C(=O)Nc1cccc(Oc2ccc3c(/C=C/c4ccccn4)n[nH]c3c2)c1,half-life [10]: 3.1 h; half-life [2]: 1.9 h
,,O=C(Nc1cccc(O)c1)c1ccc2c(-c3nc4ccccc4[nH]3)n[nH]c2c1,inhibition [16]: 57.7%
,,O=C(Nc1cccc(Oc2ccc3c(/C=C/c4ccccc4)n[nH]c3c2)c1)c1ccccc1,Cmax [17]: 198 ng/mL
1.4 h,0.9 h,CCCNC(=O)c1ccccc1Sc1ccc2c(/C=C/c3ccccn3)n[nH]c2c1,
,,CCn1nc(C)cc1C(=O)Nc1cccc(Oc2ccc3c(/C=C/c4ccccn4)n[nH]c3c2)c1.Cl,half-life [2]: 21 h
1.4 h,0.9 h,C#CCNC(=O)c1ccccc1Sc1ccc2c(/C=C/c3ccccn3)n[nH]c2c1,
,,O=C(Nc1cccc(Oc2ccc3c(/C=C/c4ccc(Cl)cc4)n[nH]c3c2)c1)c1ccccc1,Activity (Rattus norvegicus [18]): 25 - 75%
,,Cc1cc(NC(=O)c2ccc3c(-c4nc5ccccc5[nH]4)n[nH]c3c2)n[nH]1,inhibition [16]: 38.6%
0.8 h,0.8 h,CC(C)NC(=O)c1ccccc1Sc1ccc2c(/C=C/c3ccccn3)n[nH]c2c1,
,,O=C(c1ccc2c(-c3nc4ccccc4[nH]3)n[nH]c2c1)N1CCC(CCO)CC1,inhibition [16]: 33%

half-life [1],half-life [3],SMILES,also measured
4 h,3.4 h,CCn1nc(C)cc1C(=O)Nc1cc(C(=O)c2ccc3c(/C=C/c4ccccn4)n[nH]c3c2)ccc1C,
3.2 h,4.9 h,O=C(NC1CCC1)c1ccccc1Sc1ccc2c(/C=C/c3ccccn3)n[nH]c2c1,
,,CCn1nc(C)cc1C(=O)Nc1cc(Nc2ccc3c(/C=C/c4ccccn4)n[nH]c3c2)c(F)cc1C.Cl,AUC(0-t) [21]: 276 µg·h/mL
5 h,2 h,O=C(Nc1cccc(C(=O)c2ccc3c(/C=C/c4ccccn4)n[nH]c3c2)c1)c1ccccc1,
,,Fc1cccc(/C=C/c2n[nH]c3cc(-c4ccncc4)ccc23)c1F,inhibition [22]: 7 to 31%
0.3 h,0.7 h,Cc1cc(C(=O)Nc2cccc(C(=O)c3ccc4c(/C=C/c5ccccn5)n[nH]c4c3)c2)n[nH]1,
0.9 h,1 h,O=C(NCC1CC1)c1ccccc1Sc1ccc2c(/C=C/c3ccccn3)n[nH]c2c1,
,,COc1cc(-c2ccc3c(-c4cc5ccccc5[nH]4)n[nH]c3c2)ccc1O,inhibition [23]: 26%
1.2 h,1.2 h,O=C(Nc1nccs1)c1ccccc1Sc1ccc2c(/C=C/c3ccccn3)n[nH]c2c1,
2.4 h,0.7 h,O=C(NCC(F)(F)F)c1ccccc1Sc1ccc2c(/C=C/c3ccccn3)n[nH]c2c1,
3.2 h,1.9 h,Cn1nc(C(C)(C)C)cc1C(=O)Nc1cccc(C(=O)c2ccc3c(/C=C/c4ccccn4)n[nH]c3c2)c1,
,,CCn1nc(C)cc1C(=O)Nc1cccc(Oc2ccc3c(/C=C/c4c[nH]cn4)n[nH]c3c2)c1,Cmax [4]: 179 ng/mL; half-life [2]: 2.1 h
1.3 h,4.5 h,C=CCONC(=O)c1ccccc1Sc1ccc2c(/C=C/c3ccccn3)n[nH]c2c1,
2.2 h,2.2 h,O=C(c1cccc(NC(=O)c2ccccn2)c1)c1ccc2c(/C=C/c3ccccc3)n[nH]c2c1,
3 h,3 h,O=C(Nc1cccc(C(=O)c2ccc3c(-c4nc5ccccc5[nH]4)n[nH]c3c2)c1)c1ccccc1,
,,O=C(NCCN1CCOCC1)c1ccc2c(-c3nc4ccccc4[nH]3)n[nH]c2c1,inhibition [16]: 21.7%
1.6 h,0.9 h,O=C(Nc1cccc(Cl)c1)c1ccccc1Sc1ccc2c(/C=C/c3ccccn3)n[nH]c2c1,
,,CC(=O)c1cccc(C(=O)Nc2cccc(N(C)c3ccc4c(/C=C/c5ccc6c(c5)OCO6)n[nH]c4c3)c2)c1,Activity (Rattus norvegicus [18]): 36 - 37%
3.2 h,0.9 h,CCNC(=O)c1ccccc1Sc1ccc2c(/C=C/c3ccccn3)n[nH]c2c1,
,,Cc1cc(C(=O)Nc2cc(C(=O)c3ccc4c(/C=C/c5ccccn5)n[nH]c4c3)c(C)cc2C)n(C)n1,Activity (Rattus norvegicus [14]): <=25%

SMILES,half-life [1],half-life [3],also measured
O=C(NC1CC1)c1ccccc1Sc1ccc2c(/C=C/c3ccccn3)n[nH]c2c1,1 h,0.7 h,
CCn1nc(C)cc1C(=O)Nc1cccc(C(=O)c2ccc3c(/C=C/c4ccccn4)n[nH]c3c2)c1,2.9 h,3.4 h,Activity (Rattus norvegicus [14]): >=25 - 75%
O=C(c1cccc(NC(=O)c2ccccn2)c1)c1ccc2c(/C=C/c3ccccn3)n[nH]c2c1,2.1 h,0.9 h,
O=C(c1cccc(NC(=O)C2C[C@H]2c2ccccc2)c1)c1ccc2c(/C=C/c3ccccn3)n[nH]c2c1 (mixture of isomers),3.1 h,0.5 h,inhibition [19]: 48%
O=C(Nc1cccc(C(=O)c2ccc3c(/C=C/c4ccccc4)n[nH]c3c2)c1)c1ccncc1,1.6 h,1.2 h,
O=C(Nc1cccc(C(=O)c2ccc3c(/C=C/c4ccccn4)n[nH]c3c2)c1)c1ccncc1,4.7 h,1.1 h,"remaining at 2 h, 5 µM [20]: 50%"
Cn1cccc1C(=O)NNC(=O)c1ccccc1Sc1ccc2c(/C=C/c3ccccn3)n[nH]c2c1,1.8 h,0.9 h,
O=C(Nc1ccccc1)c1ccccc1Sc1ccc2c(/C=C/c3ccccn3)n[nH]c2c1,1.2 h,3 h,
C/C=C/C(=O)Nc1cccc(C(=O)c2ccc3c(/C=C/c4ccccn4)n[nH]c3c2)c1,1.7 h,2.6 h,Activity (Rattus norvegicus [14]): 25 - 75%
O=C(Nc1cccc(C(=O)c2ccc3c(/C=N/n4cccc4)n[nH]c3c2)c1)c1ccccc1,2 h,3 h,
CC(=O)c1ccc(C(=O)Nc2cccc(C(=O)c3ccc4c(/C=C/c5ccccn5)n[nH]c4c3)c2)s1,1.6 h,1.6 h,
